Source: patent US9149509B2, “Methods for improving neurological outcome after neural injury and neurodegenerative disease” (HENRY FORD HEALTH SYSTEM, priority 2009, dated 2015)

Assays:
[1] = system: experimental autoimmune encephalomyelitis (EAE) mice; assay: Experimental autoimmune encephalomyelitis (EAE) mouse model of multiple sclerosis; format: in vivo; conditions: 6 mg/kg IP, up to 30 days, vs saline control, p<0.01, FIG. 9
Experimental: (§1) Effectiveness of treatment with thymosin β4 was tested in stroke (middle cerebral artery occlusion (MCAo)) rats and in experimental autoimmune encephalomyelitis (EAE) mice (a well-established in vivo model for multiple sclerosis). Both the stroke rats and the EAE mice were treated with 6 mg/kg thymosin β4 intraperitoneally (IP) in a volume of 0.3 mL twenty-four hours after stroke or after the day of immunization in the EAE model and then every three days (6 mg/kg IP) for four additional doses. An equal volume of saline was administered (IP) to a group of both stroke rats and EAE mice as a control. Bromodeoxyuridine (BrdU; 100 mg/kg) was administered (IP) daily for seven days, initiated 24 hours after MCAo to label proliferating cells. Behavioral tests (adhesive removable test and NSS (Neurological Severity Score)) were performed immediately before treatment and at days 1, 7, 14, 21, 28, 35, 42, 49, and 56 days after MCAo and up to 30 days in the EAE mouse model. All rats were sacrificed 56 days after MCAo; EAE mice were sacrificed at 30 days.

[2] = system: stroke (middle cerebral artery occlusion (MCAo)) rats; assay: Embolic middle cerebral artery occlusion (MCAo) stroke model in rats; format: in vivo, rat
Experimental: as §1

[3] = embolic stroke rats, 6 mg/kg IP, vs saline control

thymosin β4 was tested, and the functional neurological score [1] was “robust improvement”, the “number of myelinated axons (Bielschowsky and Luxol Fast Blue staining)” value ([2]; after MCAo, treated vs control, p<0.05, FIG. 4) was “increased” and the “cellular proliferation (BrdU expression, number of BrdU immunoreactive cells)” value ([2]; after MCAo, treated vs control, p<0.05, FIG. 8) was “increased”. The “number of oligodendrocyte progenitors and matured oligodendrocytes” value ([2]; after MCAo, treated vs control, p<0.05, FIGS. 5-7) was “increased”, the “functional improvement in behavioral tests (adhesive removal test, NSS)” value ([2]; beginning at 21 days after stroke onset, 6 mg/kg IP, p<0.05, FIG. 1-2) was “Significant functional improvement” and the “relative increase in BrdU expression in the striatum or myelinated region of the rat brain” value ([2]; embolic stroke rats, 6 mg/kg IP 24 h after stroke, then every three days for four additional doses, sacrificed 56 days after MCAo) was 42%. For the same substance, the “increase in CNP, a marker of mature oligodendrocytes” value [2, 3] was 11% and the “increase in NG-2, a marker of immature oligodendrocytes” value [2, 3] was 47%.
